Assay results taken from patent US20240398811A1, “PRC2 INHIBITORS FOR USE IN TREATING BLOOD DISORDERS” (ORIC Pharmaceuticals, Inc., priority 2021, published 2024).
pIC50: −log10 of the molar value.

Biological target: purified human, His-tagged PRC2 complex (Homo sapiens (Human), UniProt O75530)
Test: Hot Spot HMT assay, inhibition of PRC2 enzymatic activity
Format: biochemical
Conditions: 10 nM PRC2 complex, 1 μM 3H-SAM, core histone H3, 10-point dose-response
In short: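 Methyl transfer from 1 μM tritiated SAM onto 0.05 mg/ml core histone H3, catalysed by 10 nM His/Flag-tagged human PRC2 holoenzyme, was run 1 hr at 30° C after a 20 min compound preincubation. Serial dilutions began at 1.0 μM; product captured on filters and counted.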

Sequence of purified human, His-tagged PRC2 complex (O75530 whole entry): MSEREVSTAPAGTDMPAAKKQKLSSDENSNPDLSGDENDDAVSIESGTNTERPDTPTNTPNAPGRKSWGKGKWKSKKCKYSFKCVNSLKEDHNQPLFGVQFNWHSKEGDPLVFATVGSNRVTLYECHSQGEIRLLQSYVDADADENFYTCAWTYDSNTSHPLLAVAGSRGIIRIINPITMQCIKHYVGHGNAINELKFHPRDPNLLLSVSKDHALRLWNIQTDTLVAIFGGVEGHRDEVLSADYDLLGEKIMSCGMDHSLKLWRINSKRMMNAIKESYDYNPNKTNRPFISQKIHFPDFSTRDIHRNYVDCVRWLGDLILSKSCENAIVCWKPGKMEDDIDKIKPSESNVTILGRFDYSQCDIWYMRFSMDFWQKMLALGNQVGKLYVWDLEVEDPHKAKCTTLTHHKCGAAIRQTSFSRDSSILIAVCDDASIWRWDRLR
Sequence of purified human, His-tagged PRC2 complex (Q15910 whole entry partner): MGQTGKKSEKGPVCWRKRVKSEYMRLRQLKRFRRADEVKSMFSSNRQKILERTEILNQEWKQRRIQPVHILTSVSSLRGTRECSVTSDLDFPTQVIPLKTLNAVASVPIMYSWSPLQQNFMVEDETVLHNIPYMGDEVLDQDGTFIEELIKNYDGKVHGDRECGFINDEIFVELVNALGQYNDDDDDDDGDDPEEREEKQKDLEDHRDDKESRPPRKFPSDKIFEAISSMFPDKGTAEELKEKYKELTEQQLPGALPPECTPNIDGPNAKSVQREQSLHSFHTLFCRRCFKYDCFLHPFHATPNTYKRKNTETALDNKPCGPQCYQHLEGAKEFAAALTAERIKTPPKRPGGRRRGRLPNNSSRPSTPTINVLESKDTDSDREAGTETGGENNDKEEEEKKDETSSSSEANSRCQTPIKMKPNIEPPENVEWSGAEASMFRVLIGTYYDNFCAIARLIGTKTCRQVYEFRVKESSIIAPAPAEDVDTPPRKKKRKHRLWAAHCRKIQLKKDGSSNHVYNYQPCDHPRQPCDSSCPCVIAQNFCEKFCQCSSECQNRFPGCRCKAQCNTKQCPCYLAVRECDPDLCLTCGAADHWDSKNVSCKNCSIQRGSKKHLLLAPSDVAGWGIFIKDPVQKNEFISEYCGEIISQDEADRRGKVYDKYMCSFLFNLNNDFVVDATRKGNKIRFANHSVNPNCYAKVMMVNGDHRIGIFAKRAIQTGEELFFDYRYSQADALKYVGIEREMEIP
Sequence of purified human, His-tagged PRC2 complex (Q15022 whole entry partner): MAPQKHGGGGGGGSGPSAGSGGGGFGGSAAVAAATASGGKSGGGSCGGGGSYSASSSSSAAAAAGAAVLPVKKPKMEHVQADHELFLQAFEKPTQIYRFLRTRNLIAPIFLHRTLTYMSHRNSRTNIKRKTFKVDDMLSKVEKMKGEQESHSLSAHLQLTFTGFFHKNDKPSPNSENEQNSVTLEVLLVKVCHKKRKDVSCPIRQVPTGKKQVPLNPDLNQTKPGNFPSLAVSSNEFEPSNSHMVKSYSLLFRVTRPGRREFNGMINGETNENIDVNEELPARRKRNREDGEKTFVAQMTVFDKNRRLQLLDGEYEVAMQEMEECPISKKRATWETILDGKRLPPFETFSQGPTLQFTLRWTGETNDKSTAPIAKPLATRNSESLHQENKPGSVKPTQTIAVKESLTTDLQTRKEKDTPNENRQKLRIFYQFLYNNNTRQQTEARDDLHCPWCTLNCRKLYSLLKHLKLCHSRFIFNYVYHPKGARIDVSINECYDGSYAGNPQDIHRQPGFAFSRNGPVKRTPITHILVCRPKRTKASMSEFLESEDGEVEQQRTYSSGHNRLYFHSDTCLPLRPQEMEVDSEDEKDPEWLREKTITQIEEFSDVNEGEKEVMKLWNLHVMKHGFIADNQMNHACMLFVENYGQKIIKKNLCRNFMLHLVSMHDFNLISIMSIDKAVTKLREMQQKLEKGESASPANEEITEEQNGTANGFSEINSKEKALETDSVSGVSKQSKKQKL
Sequence of purified human, His-tagged PRC2 complex (Q6ZN18 whole entry partner): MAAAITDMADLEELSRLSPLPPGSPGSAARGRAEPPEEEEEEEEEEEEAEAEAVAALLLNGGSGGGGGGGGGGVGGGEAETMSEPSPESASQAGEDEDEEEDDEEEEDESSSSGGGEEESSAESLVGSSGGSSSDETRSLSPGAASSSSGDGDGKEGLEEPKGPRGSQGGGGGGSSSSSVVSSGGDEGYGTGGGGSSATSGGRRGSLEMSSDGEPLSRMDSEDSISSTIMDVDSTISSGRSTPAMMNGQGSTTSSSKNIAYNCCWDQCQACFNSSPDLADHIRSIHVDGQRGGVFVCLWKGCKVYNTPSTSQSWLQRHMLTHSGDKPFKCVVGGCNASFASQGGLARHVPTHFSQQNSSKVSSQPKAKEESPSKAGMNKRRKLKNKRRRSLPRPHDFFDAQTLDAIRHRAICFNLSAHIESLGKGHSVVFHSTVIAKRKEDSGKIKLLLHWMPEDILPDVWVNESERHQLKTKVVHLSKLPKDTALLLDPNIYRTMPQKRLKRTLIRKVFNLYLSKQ
Sequence of purified human, His-tagged PRC2 complex (Q09028 whole entry partner): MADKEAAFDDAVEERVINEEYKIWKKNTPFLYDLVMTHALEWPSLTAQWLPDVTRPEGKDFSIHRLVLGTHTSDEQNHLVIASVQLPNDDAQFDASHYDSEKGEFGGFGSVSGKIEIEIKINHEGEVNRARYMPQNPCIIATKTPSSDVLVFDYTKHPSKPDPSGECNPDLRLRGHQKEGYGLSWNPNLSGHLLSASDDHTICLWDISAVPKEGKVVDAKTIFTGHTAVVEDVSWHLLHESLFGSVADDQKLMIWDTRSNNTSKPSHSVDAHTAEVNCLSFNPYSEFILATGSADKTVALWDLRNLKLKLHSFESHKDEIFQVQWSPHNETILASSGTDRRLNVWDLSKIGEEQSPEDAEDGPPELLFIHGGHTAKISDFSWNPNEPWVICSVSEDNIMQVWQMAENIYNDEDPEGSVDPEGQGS

## N#Cc1ccc(-c2cnc(NCc3c(F)ccc4c3CCO4)n3cc(C#N)nc23)cn1 [Example 128, 8-(6-cyanopyridin-3-yl)-5-(((5-fluoro-2,3-dihydrobenzofuran-4-yl)methyl)amino)imidazo[1,2-c]pyrimidine-2-carbonitrile]
  pIC50: > 7.00

## Cc1ncc(-c2cnc(NCc3c(F)ccc4c3CCO4)n3cc(C#N)nc23)cc1N [Example 129, 8-(5-amino-6-methylpyridin-3-yl)-5-(((5-fluoro-2,3-dihydrobenzofuran-4-yl)methyl)amino)imidazo[1,2-c]pyrimidine-2-carbonitrile]
  pIC50: > 7.00

## COc1ncc(-c2cnc(NCc3c(F)ccc4c3CCO4)n3cc(C#N)nc23)cc1C#N [Example 130, 8-(5-cyano-6-methoxypyridin-3-yl)-5-(((5-fluoro-2,3-dihydrobenzofuran-4-yl)methyl)amino)imidazo[1,2-c]pyrimidine-2-carbonitrile]
  pIC50: 6.30 to 7.00

## CC(=O)Nc1cc(-c2cnc(NCc3c(F)ccc4c3CCO4)n3cc(C#N)nc23)ccn1 [Example 131, N-(4-(2-cyano-5-(((5-fluoro-2,3-dihydrobenzofuran-4-yl)methyl)amino)imidazo[1,2-c]pyrimidin-8-yl)pyridin-2-yl)acetamide]
  pIC50: > 7.00

## N#Cc1cn2c(NCc3c(F)ccc4c3CCO4)ncc(-c3cncc(C(F)(F)F)c3)c2n1 [Example 132, 5-(((5-fluoro-2,3-dihydrobenzofuran-4-yl)methyl)amino)-8-(5-(trifluoromethyl)pyridin-3-yl)imidazo[1,2-c]pyrimidine-2-carbonitrile]
  pIC50: < 6.30

## CC(C)Oc1ccc(-c2cnc(NCc3c(F)ccc4c3CCO4)n3cc(C#N)nc23)cn1 [Example 133, 5-(((5-fluoro-2,3-dihydrobenzofuran-4-yl)methyl)amino)-8-(6-isopropoxypyridin-3-yl)imidazo[1,2-c]pyrimidine-2-carbonitrile]
  pIC50: > 7.00

## N#Cc1cn2c(NCc3c(F)ccc4c3CCO4)ncc(-c3cnc(N)c(C(F)(F)F)c3)c2n1 [Example 134, 8-(6-amino-5-(trifluoromethyl)pyridin-3-yl)-5-(((5-fluoro-2,3-dihydrobenzofuran-4-yl)methyl)amino)imidazo[1,2-c]pyrimidine-2-carbonitrile]
  pIC50: 6.30 to 7.00

## N#Cc1cn2c(NCc3c(F)ccc4c3CCO4)ncc(-c3ccc(N4CCCCC4)nc3)c2n1 [Example 135, 5-(((5-fluoro-2,3-dihydrobenzofuran-4-yl)methyl)amino)-8-(6-(piperidin-1-yl)pyridin-3-yl)imidazo[1,2-c]pyrimidine-2-carbonitrile]
  pIC50: > 7.00

## Cc1nc(N2CCN(C)CC2)ccc1-c1cnc(NCc2c(F)ccc3c2CCO3)n2cc(C#N)nc12 [Example 136, 5-(((5-fluoro-2,3-dihydrobenzofuran-4-yl)methyl)amino)-8-(2-methyl-6-(4-methylpiperazin-1-yl)pyridin-3-yl)imidazo[1,2-c]pyrimidine-2-carbonitrile]
  pIC50: 6.30 to 7.00

## Cc1ncccc1-c1cnc(NCc2c(F)ccc3c2CCO3)n2cc(C(N)=O)nc12 [Example 137, 5-(((5-fluoro-2,3-dihydrobenzofuran-4-yl)methyl)amino)-8-(2-methylpyridin-3-yl)imidazo[1,2-c]pyrimidine-2-carboxamide]
  pIC50: > 7.00

## Cc1nc(N2CCN(C)CC2)ccc1-c1cnc(NCc2c(F)ccc3c2CCO3)n2cc(C(N)=O)nc12 [Example 138, 5-(((5-fluoro-2,3-dihydrobenzofuran-4-yl)methyl)amino)-8-(2-methyl-6-(4-methylpiperazin-1-yl)pyridin-3-yl)imidazo[1,2-c]pyrimidine-2-carboxamide]
  pIC50: > 7.00

## N#Cc1cn2c(NCc3c(F)ccc4c3CCO4)ncc(C3CCOCC3)c2n1 [Example 141, 5-(((5-fluoro-2,3-dihydrobenzofuran-4-yl)methyl)amino)-8-(tetrahydro-2H-pyran-4-yl)imidazo[1,2-c]pyrimidine-2-carbonitrile]
  pIC50: < 6.30

## N#Cc1cn2c(NCc3c(F)ccc4c3CCO4)ncc(-c3cccnn3)c2n1 [Example 142, 5-(((5-fluoro-2,3-dihydrobenzofuran-4-yl)methyl)amino)-8-(pyridazin-3-yl)imidazo[1,2-c]pyrimidine-2-carbonitrile]
  pIC50: > 7.00

## Cn1nncc1-c1cnc(NCc2c(F)ccc3c2CCO3)n2cc(C#N)nc12 [Example 143, 5-(((5-fluoro-2,3-dihydrobenzofuran-4-yl)methyl)amino)-8-(1-methyl-1H-1,2,3-triazol-5-yl)imidazo[1,2-c]pyrimidine-2-carbonitrile]
  pIC50: > 7.00

## Cn1nc(C2CC2)cc1-c1cnc(NCc2c(F)ccc3c2CCO3)n2cc(C#N)nc12 [Example 144, 8-(3-cyclopropyl-1-methyl-1H-pyrazol-5-yl)-5-(((5-fluoro-2,3-dihydrobenzofuran-4-yl)methyl)amino)imidazo[1,2-c]pyrimidine-2-carbonitrile]
  pIC50: > 7.00

## Cc1nc(-c2cnc(NCc3c(F)ccc4c3CCO4)n3cc(C#N)nc23)c(C)s1 [Example 145, 8-(2,5-dimethylthiazol-4-yl)-5-(((5-fluoro-2,3-dihydrobenzofuran-4-yl)methyl)amino)imidazo[1,2-c]pyrimidine-2-carbonitrile]
  pIC50: 6.30 to 7.00

## N#Cc1cn2c(NCc3c(F)ccc4c3CCO4)ncc(-c3ccccn3)c2n1 [Example 146, 5-(((5-fluoro-2,3-dihydrobenzofuran-4-yl)methyl)amino)-8-(pyridin-2-yl)imidazo[1,2-c]pyrimidine-2-carbonitrile]
  pIC50: 6.30 to 7.00

## N#Cc1cn2c(NCc3c(F)ccc4c3CCO4)ncc(-c3ccc(CO)nc3)c2n1 [Example 147, 5-(((5-fluoro-2,3-dihydrobenzofuran-4-yl)methyl)amino)-8-(6-(hydroxymethyl)pyridin-3-yl)imidazo[1,2-c]pyrimidine-2-carbonitrile]
  pIC50: 6.30 to 7.00

## N#Cc1cn2c(NCc3c(F)ccc4c3CCO4)ncc(-c3cccnc3CO)c2n1 [Example 148, 5-(((5-fluoro-2,3-dihydrobenzofuran-4-yl)methyl)amino)-8-(2-(hydroxymethyl)pyridin-3-yl)imidazo[1,2-c]pyrimidine-2-carbonitrile]
  pIC50: > 7.00

## CN(C)Cc1c(F)cc(-c2cnc(NCc3c(F)ccc4c3CCO4)n3cc(C#N)nc23)cc1F [Example 149, 8-(4-((dimethylamino)methyl)-3,5-difluorophenyl)-5-(((5-fluoro-2,3-dihydrobenzofuran-4-yl)methyl)amino)imidazo[1,2-c]pyrimidine-2-carbonitrile]
  pIC50: 6.30 to 7.00

## N#Cc1cn2c(NCc3c(F)ccc4c3CCO4)ncc(-c3ccc(CN4CC(O)C4)cc3)c2n1 [Example 150, 5-(((5-fluoro-2,3-dihydrobenzofuran-4-yl)methyl)amino)-8-(4-((3-hydroxyazetidin-1-yl)methyl)phenyl)imidazo[1,2-c]pyrimidine-2-carbonitrile]
  pIC50: > 7.00

## N#Cc1cn2c(NCc3c(F)ccc4c3CCO4)ncc(-c3ccc(CN4CCC(O)C4)cc3)c2n1 (stereo not drawn) [Example 151, 5-(((5-fluoro-2,3-dihydrobenzofuran-4-yl)methyl)amino)-8-(4-((3-hydroxypyrrolidin-1-yl)methyl)phenyl)imidazo[1,2-c]pyrimidine-2-carbonitrile]
  pIC50: > 7.00

## Cc1nc(CN(C)C)ccc1-c1cnc(NCc2c(F)ccc3c2CCO3)n2cc(C#N)nc12 [Example 152, 8-(6-((dimethylamino)methyl)-2-methylpyridin-3-yl)-5-(((5-fluoro-2,3-dihydrobenzofuran-4-yl)methyl)amino)imidazo[1,2-c]pyrimidine-2-carbonitrile]
  pIC50: 6.30 to 7.00

## N#Cc1cn2c(NCc3c(F)ccc4c3CCO4)ncc(-c3ccn(CC4CCCO4)n3)c2n1 (stereo not drawn) [Example 153, 5-(((5-fluoro-2,3-dihydrobenzofuran-4-yl)methyl)amino)-8-(1-((tetrahydrofuran-2-yl)methyl)-1H-pyrazol-3-yl)imidazo[1,2-c]pyrimidine-2-carbonitrile]
  pIC50: 6.30 to 7.00

## N#Cc1cn2c(NCc3c(F)ccc4c3CCO4)ncc(-c3cnn(CC4CCOC4)c3)c2n1 (stereo not drawn) [Example 154, 5-(((5-fluoro-2,3-dihydrobenzofuran-4-yl)methyl)amino)-8-(1-((tetrahydrofuran-3-yl)methyl)-1H-pyrazol-4-yl)imidazo[1,2-c]pyrimidine-2-carbonitrile]
  pIC50: 6.30 to 7.00

## Cc1cc(-c2cnc(NCc3c(F)ccc4c3C(O)CO4)n3cc(C#N)nc23)n(C)n1 (stereo not drawn) [Example 155, 8-(1,3-dimethyl-1H-pyrazol-5-yl)-5-(((5-fluoro-3-hydroxy-2,3-dihydrobenzofuran-4-yl)methyl)amino)imidazo[1,2-c]pyrimidine-2-carbonitrile]
  pIC50: > 7.00

## Cn1cccc(-c2cnc(NCc3c(F)ccc4c3CCO4)n3cc(C#N)nc23)c1=O [Example 156, 5-(((5-fluoro-2,3-dihydrobenzofuran-4-yl)methyl)amino)-8-(1-methyl-2-oxo-1,2-dihydropyridin-3-yl)imidazo[1,2-c]pyrimidine-2-carbonitrile]
  pIC50: 6.30 to 7.00

## Cn1nc(C(=O)O)cc1-c1cnc(NCc2c(F)ccc3c2CCO3)n2cc(C#N)nc12 [Example 157, 5-(2-cyano-5-(((5-fluoro-2,3-dihydrobenzofuran-4-yl)methyl)amino)imidazo[1,2-c]pyrimidin-8-yl)-1-methyl-1H-pyrazole-3-carboxylic acid]
  pIC50: > 7.00

## COCCOc1ccc(-c2cnc(NCc3c(F)ccc4c3CCO4)n3cc(C#N)nc23)cn1 [Example 158, 5-(((5-fluoro-2,3-dihydrobenzofuran-4-yl)methyl)amino)-8-(6-(2-methoxyethoxy)pyridin-3-yl)imidazo[1,2-c]pyrimidine-2-carbonitrile]
  pIC50: 6.30 to 7.00

## CN1CCc2cc(-c3cnc(NCc4c(F)ccc5c4CCO5)n4cc(C#N)nc34)ccc2C1 [Example 159, 5-(((5-fluoro-2,3-dihydrobenzofuran-4-yl)methyl)amino)-8-(2-methyl-1,2,3,4-tetrahydroisoquinolin-6-yl)imidazo[1,2-c]pyrimidine-2-carbonitrile]
  pIC50: 6.30 to 7.00
